Literature values as cited in patent publication US11311621B2, “Organosilicon compound microparticles and process for their preparation” (SILICIUM ESPAÑA LABORATORIOS, S.L., priority 2018, dated 2022).

Settings: 21° C., without irreversible polymerization after 2 months

## monomethylsilanetriol [MMST]
  solubility of MMST in water without irreversible polymerization: up to 21 mM
  solubility of MMST in water without irreversible polymerization (as silicon): ≤ 588 mg Si/L
